The nature of the series: Degradation (hydrolysis) of Compound I after wet granulation with water. In kind it is physicochemical. Conditions: granulation liquid deionized water; LOD value less than or equal to about 1% for the dried granulate. The protocol: Once blended, a granulation liquid, deionized water, is added for wet kneading. The impeller and chopper speeds are increased to setting 2 (e.g., 306 rpm and 500 rpm, respectively, for the impeller and chopper). The kneading is conducted at room temperature. After granulation, the moist granulates are dried in a fluid-bed dryer with an air inlet temperature of approximately 70° C. to obtain granulates. The moist granulates are dried such that there is a LOD value below 1.0%. The granulates are subsequently sieved using a screen with a mesh size of 1.25 mm or 0.8 mm. As mentioned above, Compound I is a salt of an ester which is potentially sensitive to hydrolysis in the presence of water.

Counter-ions that a name gives are not always drawn.

Consider 1 compound from patent US20080207533A1, “Pharmaceutical Compositions” (priority 2005, published 2008).

As to `CC(C)[C@H](N)C(=O)O[C@@H]1[C@@H](CO)O[C@@H](n2ccc(N)nc2=O)[C@]1(C)O` [Compound I, dihydrochloride salt], the “degradation, e.g., due to hydrolysis, after wet granulation” value was “does not result in an increase in degradation”.
